Reference: US20100003217A1, “Compounds and Pharmaceutical Compositions for the Treatment of Viral Infections” (priority 2008, published 2010)
Where “and” joins values, the source holds several entries; their conditions need not be identical. Identical values can stand only once. Each block holds one molecule with its values, some of them ahead of it.

Key:
[1] = Stability in monkey liver microsomes; format: in vitro ADME; conditions: 60 min, 50 μM; for % Residual compound following incubation with liver microsomes: monkey microsomes 1 mg/mL
Procedure: Disappearance of parent Compound 1 was used to evaluate the in vitro metabolism thereof. Relative levels of unchanged Compound 1 were measured by HPLC-UV method 1. Residual Compound 1 is reported as percent difference from time zero or control. The HPLC-UV system was as follows:
Incubations with liver microsomes or cytosol were conducted in a final volume of 0.1 mL per incubation time point. […] DMSO (final DMSO concentration was 0.1%) was incubated at 37° C. from 0-60 min with pooled microsomal protein (1.0 mg/mL), suspended in incubation buffer (0.1 M potassium phosphate, pH 7.4, 5 mM MgCl2, and 0.1 mM EDTA). The microsomal reaction was initiated by the addition of NADPH (3 mM final concentration). Incubations with (a) no protein or (b) no NADPH served as controls. Reactions were terminated by the addition of 0.2 mL of stop solution (acetonitrile). The samples were vortex-mixed for 30 sec and then centrifuged at 10,000×g for 10 min. The supernatant was dried using a Labconco CentriVap concentrator and the dry residue reconstituted in water, transferred to an HPLC glass vial and analyzed by HPLC-UV method 1 (described above).
Metabolic stability of the proposed metabolites was conducted by incubating the chemically synthesized standards Compound 2, Compound 4 and Compound 3 as described above for Compound 1. When possible, formation of Compound 5 was verified by incubating samples with alkaline phosphatase (10 U) for 60 min at 37° C.

[2] = tested on: human primary hepatocytes; assay: Metabolic disposition of [^14C]-Compound 1 and [^14C]-2′-C-methyl guanosine in human primary hepatocytes (incubation medium, cellular extracts, nucleotide levels); format: in vitro ADME; conditions: for AUC (area under the concentration-time curve) of Compound 7 levels: 0-24 h
Procedure: Primary hepatocytes: Freshly isolated cells from animal and human liver were obtained in suspension on ice. Cells were pelleted by centrifugation at 70-75×g (rat) or 95-90×g (monkey and human) and resuspended at 0.8 million cells per mL of platting medium (William's E supplemented with 5% FBS, 0.5% penicillin-streptomycin, 1% L-glutamine, 4 μg/mL insulin and 1 μM dexamethasone). Multi-well collagen I-coated plates (rat tail collagen type I; 12- or 6-well) were then seeded by addition of 1 mL (12-well; 0.8 million cells/well) or 2 mL (6-well; 1.6 million cells/well) of cell suspension. The plates were gently shaken to evenly distribute the cells and placed in an incubator at 37° C. for approximately 4 to 6 hours to allow cells to attach. Once cells were attached, the platting medium was removed and replaced with hepatocyte culture medium (William's E supplemented with penicillin-streptomycin, 1% L-glutamine, 1% insulin-transferrin-selenium and 0.1 μM dexamethasone). Cells were left overnight in an incubator at 37° C. to acclimatize to culture and the medium.
Hepatocyte incubations with radiolabeled Compound 1 and 2′-C-methyl guanosine, both labeled in the C-8 position of the guanine moiety, were conducted at a final volume of 2.0 mL hepatocyte culture medium/well ([…]). Culture medium from overnight incubation of cells was removed and replaced with fresh medium, pre-warmed to 37° C., containing 1 or 10 μM [^14C]-Compound 1 ([…]) or [^14C]-2′-C-methyl guanosine (127 DPM/μmol) from a stock solution in DMSO (final DMSO concentration was 0.1%) or 50% ethanol (final ethanol concentration was 0.2%). After 1, 4, 8 and 24 hours, 0.5-1.0 mL of incubation medium was removed and stored at −20° C. until analysis (described below). The remaining medium was discarded and cell monolayers were carefully washed two times with ice-cold PBS. Following the last wash, all PBS was carefully removed and 1.0 mL of extraction solution (ice-cold 70% methanol) added. Cells were scrapped off and suspended in the extraction solution, transferred to 2 mL polypropylene microfuge tubes and intracellular contents extracted overnight at −20° C.
Preliminary identification of putative metabolites was conducted by comparing the retention time of observed metabolites in incubation medium and cellular extracts with retention times obtained with chemically synthesized standards using the chromatography conditions described below. Further identification of 2′-C-methyl guanosine nucleotides (mono-, di- and triphosphate) was carried out by incubating cellular extract samples with alkaline phosphatase (10 units for 60 min at 37° C.) and comparing the HPLC retention times of the resulting nucleosides with that of authentic 2′-C-methyl guanosine.
Cellular extracts were prepared by centrifugation at 16,000 RCF using an Eppendorf microcentrifuge (Eppendorf, Model 5415D) for 10 min to remove cellular debris. An aliquot of 5-10 μL of the supernatant was added to 5 mL of EcoLite™ (MP, Irvine, Calif.) liquid scintillation cocktail and radioactivity measured by liquid scintillation counting (LSC) using a Beckman Coulter LS6500 multipurpose liquid scintillation counter (Beckman Instruments, Fullerton, Calif.). The remaining sample was then dried using a Labconco refrigerated centrivap concentrator (Labconco, Kansas City, Mo.). Dry extracts were reconstituted in 120 μL of HPLC-grade water and centrifuged at 16,000 RCF using an Eppendorf microcentrifuge for 10 min. Prior to HPLC analysis (described below), radioactivity of the concentrated extracts was measured by LSC using 5 μL aliquots. Extraction recovery was then determined by comparing total radioactivity in extracts before and after drying. The remaining extract was then analyzed by HPLC with online radioactivity detection using a Flow Scintillation Analyzer Radiomatic™ 515TR. Radioactivity in the separated components was quantified by integrating the peaks using Flo-One™ Software (Perkin Elmer Life Sciences). […]

[3] = human hepatocytes (Hu775), 1 μM [^14C]-Compound 1, 1 h
[4] = human hepatocytes (Hu775), 1 μM [^14C]-Compound 1, 8 h
[5] = human hepatocytes (Hu775), 1 μM [^14C]-Compound 1, 24 h
[6] = human hepatocytes Hu775, 1 μM [^14C]-2′-C-methyl guanosine, 1 h
[7] = human hepatocytes Hu775, 1 μM [^14C]-2′-C-methyl guanosine, 8 h
[8] = human hepatocytes Hu775, 1 μM [^14C]-2′-C-methyl guanosine, 24 h

- NADPH-dependent metabolism ([1]; monkey liver microsomes): 20-30%
- % Residual compound following incubation with liver microsomes ([1]; NADPH): 76%
- % Residual compound following incubation with liver microsomes ([1]; No Cofactor): 89%
SMILES: CC(C)(CO)C(=O)SCCOP(N)(=O)OC[C@H]1O[C@@H](n2cnc3c(=O)[nH]c(N)nc32)[C@](C)(O)[C@@H]1O (mixture of isomers) [Compound 3, {9-[(2R)2-C-methyl-β-D-ribo-furanosyl]-guanin}-5′-yl-O-(hydroxy-tert-butyl-S-acyl-2-thioethyl) phosphoramidate]

- metabolites observed in cellular extracts (% of total radioactivity) ([2]; human hepatocytes (Hu759, Hu775), 10 μM [^14C]-2′-C-methyl guanosine, 1 h): 2.40% and 3.93%
- metabolites observed in cellular extracts (% of total radioactivity) ([2]; human hepatocytes (Hu759, Hu775), 10 μM [^14C]-2′-C-methyl guanosine, 4 h): 11.1% and 19.4%
- metabolites observed in cellular extracts (% of total radioactivity) ([2]; human hepatocytes (Hu759, Hu775), 10 μM [^14C]-2′-C-methyl guanosine, 8 h): 19.6% and 34.1%
- metabolites observed in cellular extracts (% of total radioactivity) ([2]; human hepatocytes (Hu759, Hu775), 10 μM [^14C]-2′-C-methyl guanosine, 24 h): 36.1% and 45.8%
- metabolites observed in cellular extracts (% of total radioactivity) ([2]; human hepatocytes (Hu759, Hu775), 10 μM [^14C]-Compound 1, 1 h): 34.2% and 46.4%
- metabolites observed in cellular extracts (% of total radioactivity) ([2]; human hepatocytes (Hu759, Hu775), 10 μM [^14C]-Compound 1, 4 h): 63.1% and 69.7%
- metabolites observed in cellular extracts (% of total radioactivity) ([2]; human hepatocytes (Hu759, Hu775), 10 μM [^14C]-Compound 1, 8 h): 70.5% and 74.1%
- metabolites observed in cellular extracts (% of total radioactivity) ([2]; human hepatocytes (Hu759, Hu775), 10 μM [^14C]-Compound 1, 24 h): 69.5% and 59.6%
- 2′-C-methyl guanosine nucleotide levels in cellular extracts [2, 3]: 8.80 pmol/million cells
- metabolites observed in cellular extracts (% of total radioactivity) [2, 3]: 48.5%
- 2′-C-methyl guanosine nucleotide levels in cellular extracts [2, 4]: 44.2 pmol/million cells
- metabolites observed in cellular extracts (% of total radioactivity) [2, 4]: 75.0%
- 2′-C-methyl guanosine nucleotide levels in cellular extracts [2, 5]: 60.4 pmol/million cells
- metabolites observed in cellular extracts (% of total radioactivity) [2, 5]: 67.0%
- Compound 7 AUC0-24h ([2]; human hepatocytes (n=1), 1 μM [^14C]-2′-C-methyl guanosine): 302 pmol*h/million cells
- Compound 7 AUC0-24h ([2]; human hepatocytes (n=1), 1 μM [^14C]-Compound 1): 1,027 pmol*h/million cells
- Compound 7 AUC0-24h ([2]; human hepatocytes (n=2), 10 μM [^14C]-Compound 1, mean): 7,398 pmol*h/million cells
- 2′-C-methyl guanosine nucleotide levels in cellular extracts ([2]; human hepatocytes Hu759, 10 μM [^14C]-2′-C-methyl guanosine, 0 h): 0 pmol/million cells
- AUC (area under the concentration-time curve) of Compound 7 levels ([2]; human hepatocytes Hu759, 10 μM [^14C]-2′-C-methyl guanosine): 2871 pmol * hr/million cells
- 2′-C-methyl guanosine nucleotide levels in cellular extracts ([2]; human hepatocytes Hu759, 10 μM [^14C]-2′-C-methyl guanosine, 1 h): 9.70 pmol/million cells
- 2′-C-methyl guanosine nucleotide levels in cellular extracts ([2]; human hepatocytes Hu759, 10 μM [^14C]-2′-C-methyl guanosine, 4 h): 51.0 pmol/million cells
- 2′-C-methyl guanosine nucleotide levels in cellular extracts ([2]; human hepatocytes Hu759, 10 μM [^14C]-2′-C-methyl guanosine, 8 h): 96.0 pmol/million cells
- 2′-C-methyl guanosine nucleotide levels in cellular extracts ([2]; human hepatocytes Hu759, 10 μM [^14C]-2′-C-methyl guanosine, 24 h): 214 pmol/million cells
- 2′-C-methyl guanosine nucleotide levels in cellular extracts ([2]; human hepatocytes Hu759, 10 μM [^14C]-Compound 1, 0 h): 0 pmol/million cells
- AUC (area under the concentration-time curve) of Compound 7 levels ([2]; human hepatocytes Hu759, 10 μM [^14C]-Compound 1): 5759 pmol * hr/million cells
- 2′-C-methyl guanosine nucleotide levels in cellular extracts ([2]; human hepatocytes Hu759, 10 μM [^14C]-Compound 1, 1 h): 24.0 pmol/million cells
- 2′-C-methyl guanosine nucleotide levels in cellular extracts ([2]; human hepatocytes Hu759, 10 μM [^14C]-Compound 1, 4 h): 166 pmol/million cells
- 2′-C-methyl guanosine nucleotide levels in cellular extracts ([2]; human hepatocytes Hu759, 10 μM [^14C]-Compound 1, 8 h): 225 pmol/million cells
- 2′-C-methyl guanosine nucleotide levels in cellular extracts ([2]; human hepatocytes Hu759, 10 μM [^14C]-Compound 1, 24 h): 360 pmol/million cells
- AUC (area under the concentration-time curve) of Compound 7 levels ([2]; human hepatocytes Hu775, 1 μM [^14C]-2′-C-methyl guanosine): 302 pmol * hr/million cells
- 2′-C-methyl guanosine nucleotide levels in cellular extracts [2, 6]: 1.90 pmol/million cells
- Major metabolites observed in cellular extracts (% of total radioactivity) [2, 6]: 5.36 % of total radioactivity
- 2′-C-methyl guanosine nucleotide levels in cellular extracts [2, 7]: 11.0 pmol/million cells
- Major metabolites observed in cellular extracts (% of total radioactivity) [2, 7]: 27.3 % of total radioactivity
- 2′-C-methyl guanosine nucleotide levels in cellular extracts [2, 8]: 21.0 pmol/million cells
- Major metabolites observed in cellular extracts (% of total radioactivity) [2, 8]: 46.3 % of total radioactivity
- AUC (area under the concentration-time curve) of Compound 7 levels ([2]; human hepatocytes Hu775, 1 μM [^14C]-Compound 1): 1027 pmol * hr/million cells
- 2′-C-methyl guanosine nucleotide levels in cellular extracts ([2]; human hepatocytes Hu775, 10 μM [^14C]-2′-C-methyl guanosine, 0 h): 0 pmol/million cells
- AUC (area under the concentration-time curve) of Compound 7 levels ([2]; human hepatocytes Hu775, 10 μM [^14C]-2′-C-methyl guanosine): 3548 pmol * hr/million cells
- 2′-C-methyl guanosine nucleotide levels in cellular extracts ([2]; human hepatocytes Hu775, 10 μM [^14C]-2′-C-methyl guanosine, 1 h): 18.5 pmol/million cells
- 2′-C-methyl guanosine nucleotide levels in cellular extracts ([2]; human hepatocytes Hu775, 10 μM [^14C]-2′-C-methyl guanosine, 8 h): 149 pmol/million cells
- 2′-C-methyl guanosine nucleotide levels in cellular extracts ([2]; human hepatocytes Hu775, 10 μM [^14C]-2′-C-methyl guanosine, 24 h): 215 pmol/million cells
- 2′-C-methyl guanosine nucleotide levels in cellular extracts ([2]; human hepatocytes Hu775, 10 μM [^14C]-Compound 1, 0 h): 0 pmol/million cells
- AUC (area under the concentration-time curve) of Compound 7 levels ([2]; human hepatocytes Hu775, 10 μM [^14C]-Compound 1): 9036 pmol * hr/million cells
- 2′-C-methyl guanosine nucleotide levels in cellular extracts ([2]; human hepatocytes Hu775, 10 μM [^14C]-Compound 1, 4 h): 216 pmol/million cells
- 2′-C-methyl guanosine nucleotide levels in cellular extracts ([2]; human hepatocytes Hu775, 10 μM [^14C]-Compound 1, 8 h): 366 pmol/million cells
- 2′-C-methyl guanosine nucleotide levels in cellular extracts ([2]; human hepatocytes Hu775, 10 μM [^14C]-Compound 1, 24 h): 564 pmol/million cells
- Compound 7 maximal levels ([2]; human hepatocytes, 1 μM [^14C]-Compound 1): 60.4 pmol/million cells
- Maximum Compound 7 levels ([2]; human hepatocytes, 10 μM [^14C]-2′-C-methyl guanosine, at 24 hours): 215 pmol/million cells
- Maximum Compound 7 levels ([2]; human hepatocytes, 10 μM [^14C]-Compound 1, at 24 hours, mean of two donors): 296 pmol/million cells
SMILES: C[C@@]1(O)[C@H](O)[C@@H](COP(=O)(O)OP(=O)(O)OP(=O)(O)O)O[C@H]1n1cnc2c(=O)[nH]c(N)nc21 [Compound 7, [(2R)-2-methyl-β-D-ribofuranosyl]guanine 5′-triphosphate]
- 2′-C-methyl guanosine nucleotide levels in cellular extracts ([2]; human hepatocytes Hu775, 10 μM [^14C]-2′-C-methyl guanosine, 4 h): 86 pmol/million cells and 86.0 pmol/million cells
- 2′-C-methyl guanosine nucleotide levels in cellular extracts ([2]; human hepatocytes Hu775, 10 μM [^14C]-Compound 1, 1 h): 54 pmol/million cells and 54.0 pmol/million cells
